Measurements reported in patent publication US4180677A, “Novel prostaglandins” (American Cyanamid Company, priority 1977, dated 1979).

Legend:
[1] = test system: ulcerogenic properties of indomethacin; assay: Protection against indomethacin-induced ulcers (oral gavage); format: in vivo, rat; conditions: rats, indomethacin 20 mg./kg. s.c., score 0 normal to 4 many ulcers
Description: The compounds of this invention provide protection against the ulcerogenic properties of indomethacin. This assay was carried out in the following manner.
Rats were starved for 48 hours (water was given ad libitum). Indomethacin (20 mg./kg. of body weight) was administered by the subcutaneous route and one-half the dose of the test compound was administered by gavage at the same time. After three hours, the second half of the test compound was administered also be gavage. Five hours after the administration of indomethacin the animals were decapitated and the stomachs removed. The stomachs were washed with distilled water, blotted on gauze, cut along the larger curvature, and the contents rinsed with distilled water. The stomachs were spread out, pinned on a cork and visualized under magnifying glass for ulcers. The criteria for scoring of ulcers was as previously reported. [Abdel-Galil et al. Brit. J. Pharmac. Chemotherapy 33:1-14 (1968)].
1-Petechial hemorrhage or pin point ulder
3 Many ulcers, a few large
4-Many ulcers, mainly large
Control animals treated with indomethacin but not test compound consistenly give scores of about 3.0. Control animals treated with neither indomethacin nor test compound gives scores of about 0.5-0.8. Compounds producing a lowering of the control score by 0.5 or more are considered to be active.

[2] = test system: bronchospasms elicited by 5-hydroxytryptamine; assay: Bronchodilator activity (Konzett assay), spasmogen 5-hydroxytryptamine; format: in vivo, guinea pig; conditions: Cavia porcellus; guinea pigs, spasmogen 5-hydroxytryptamine i.v.; three logarithmic cumulative intravenous doses
Description: (§1) Bronchodilator activity was determined in guinea pigs against bronchospasms elicited by intravenous injections of 5-hydroxytryptamine, histamine or acetylcholine by the Konzett procedure. [See J. Lulling, P. Lievens, F. El Sayed and J. Prignot, Arzneimittel-Forschung, 18, 995 (1968).]
(§2) In the Table which follows bronchodilator activity for representative compounds of this invention against one or more of three spasmogenic agents is expressed as an ED50 determined from the results obtained with three logarithemic cumulative intravenous doses.

[3] = test system: bronchospasms elicited by histamine; assay: Bronchodilator activity (Konzett assay), spasmogen histamine; format: in vivo, guinea pig; conditions: Cavia porcellus; guinea pigs, spasmogen histamine i.v.; three logarithmic cumulative intravenous doses
Description: as §1, §2

[4] = test system: bronchospasms elicited by acetylcholine; assay: Bronchodilator activity (Konzett assay), spasmogen acetylcholine; format: in vivo, guinea pig; conditions: Cavia porcellus; guinea pigs, spasmogen acetylcholine i.v.; three logarithmic cumulative intravenous doses
Description: as §1, §2

| SMILES | Score, treated (ulcer score) ([1]; total oral dose 25.0 mg./kg. of body weight, control score 3.0) | ED50 [2] [mg/kg] | ED50 [3] [mg/kg] | ED50 [4] [mg/kg] | Score, treated (ulcer score) ([1]; total oral dose 12.5 mg./kg. of body weight, control score 2.8) |
| --- | --- | --- | --- | --- | --- |
| O=C(O)CCCCCC[C@H]1C(=O)CC[C@@H]1/C=C/[C@H](O)CC1CCCC1 (relative stereo) [9-oxo-15-epi-hydroxy-17,20-methano-13-trans-prostenoic acid] | 1.7 | 3.2 | 0.206 | 3.2 | – |
| O=C(O)CCCCCC[C@H]1C(=O)CC[C@@H]1/C=C/[C@@H](O)CC1CCCC1 (relative stereo) [9-oxo-15-hydroxy-17,20-methano-13-trans-prostenoic acid] | – | 0.0063 | 0.0014 | 3.2 | 1.8 |
